Like-named read-outs stand apart in the source and are kept apart here.
Details: rcm bond, Grubbs II

With `[2H]C([2H])([2H])n1ncc2c1-c1ccnc(c1)[C@@H](NC(=O)OC(C)(C)C)CC=C[C@@H](C)C(=O)N2` the ring closure, yield of all isomers (from [2H]C([2H])([2H])n1ncc(NC(=O)[C@H](C)C=C)c1-c1ccnc([C@H](CC=C)NC(=O)OC(C)(C)C)c1, DCE, 13.2 mM, 120.0 °C, 0.5 h) was 26%.
Work on `C[C@@H]1/C=C/C[C@H](NC(=O)OC(C)(C)C)c2cc(ccn2)-c2c(cnn2C(F)F)NC1=O` yielded a ring closure, yield of all isomers (from C=CC[C@H](NC(=O)OC(C)(C)C)c1cc(-c2c(NC(=O)[C@H](C)C=C)cnn2C(F)F)ccn1, EtOAc, 5.0 mM, 77.0 °C, 24.0 h) of 76%.
With `C[C@@H]1/C=C/C[C@H](NC(=O)OC(C)(C)C)c2ccnc(c2)-c2c(cnn2C)NC1=O` the ring closure, yield of all isomers (from C=CC[C@H](NC(=O)OC(C)(C)C)c1ccnc(-c2c(NC(=O)[C@H](C)C=C)cnn2C)c1, DCE, 18.8 mM, 120.0 °C, 0.5 h) was 19%.
With `C[C@@H]1/C=C/C[C@H](NC(=O)OC(C)(C)C)c2cc(ccn2)-c2c(cnn2C)NC1=O` the ring closure, yield of all isomers (from C=CC[C@H](NC(=O)OC(C)(C)C)c1cc(-c2c(NC(=O)[C@H](C)C=C)cnn2C)ccn1, DCE, 34.7 mM, 120.0 °C, 0.5 h) was 23%.
With `C[C@@H]1/C=C/C[C@H](NC(=O)OCc2ccccc2)c2cc(ccn2)-c2c(cnn2COCC[Si](C)(C)C)NC1=O` the ring closure, yield of all isomers (from C=CC[C@H](NC(=O)OCc1ccccc1)c1cc(-c2c(NC(=O)[C@H](C)C=C)cnn2COCC[Si](C)(C)C)ccn1, DCE, 108.0 mM, 120.0 °C, 0.5 h) was 42%.
